Laboratory results published in PMC7504721, “Targeting the Initiator Protease of the Classical Pathway of Complement Using Fragment-Based Drug Discovery” (Molecules, 2020).

Legend:
alternative pathway = assay: Alternative pathway-specific ELISA (LPS, 20% serum, C3b detection); assay type: biochemical, human; conditions: single dose 500 µM, triplicate
Method: Figure 5 Selectivity and mechanistic analysis of CMP-1611 and CMP-1696. (A) Chemical structure of CMP-1611. (B) Chemical structure of CMP-1696. (C) Dose-dependent inhibition by CMP-1611 and CMP-1696 in a classical pathway-specific ELISA. Data were fit with GraphPad Prism using non-linear regression with a log(inhibitor) vs. response model. […] (D) Complement pathway selectivity of CMP-1611 and CMP-1696. Compounds were assessed for their ability to inhibit activation of complement via the lectin and alternative pathways using single doses of 500 µM compound in triplicate. To ensure only lectin pathway activation, 2% (v/v) C1q-depleted serum (CompTech) was used and mannan was used as the activator. To match serum sources and amounts for this assay, the classical pathway assays were repeated here using serum from CompTech at 2% (v/v) final concentration. Alternative pathway activation assays were performed using 20% (v/v) serum (CompTech), alternative pathway buffers, and C3b detection (see Methods and Materials for details). […]
To carry out classical pathway ELISA-based inhibition assays, IgM was dissolved in coating buffer (100 mM Na2CO3/NaHCO3, pH 9.6) to a final concentration of 3 µg/mL and was dispensed into 96-well plates at 100 µL per well. […] The reaction was stopped with 50 µL of 0.16 M sulfuric acid, and the plate was read at 450 nm using an EnSight multimode plate reader (Perkin-Elmer). […]

C1r = system: C1r; parameters: method as in PMID 10206542; conditions: cited from earlier work

SMILES | inhibition of alternative pathway activation (alternative pathway) | inhibition of C1r (C1r)
CN(C)c1cc(N2CCCC(N)C2)ncn1 (centres unmarked) [CMP-1611] | no effect | 
N=C(N)c1ccc2cc(OC(=O)c3ccc(N=C(N)N)cc3)ccc2c1 [Futhan, reference compound] |  | previously reported to inhibit C1r
